Measured values as given in ChEMBL document CHEMBL4052660, “The tobacco cembranoid (1S,2E,4S,7E,11E)-2,7,11-cembratriene-4,6-diol as a novel angiogenesis inhibitory lead for the control of breast malignancies” (Bioorg Med Chem, 2017).
Active and inactive are the calls of the source. No cut-off for these calls is given here.

Tests used:
[1] = biological target: Vascular endothelial growth factor receptor 2 (Homo sapiens) (UniProt P35968); assay: Inhibition of VEGFR2 phosphorylation in human MDA-MB-231 cells at 20 uM by Western blot analysis; format: cell-based
Vascular endothelial growth factor receptor 2 (Homo sapiens), sequence (P35968 whole entry): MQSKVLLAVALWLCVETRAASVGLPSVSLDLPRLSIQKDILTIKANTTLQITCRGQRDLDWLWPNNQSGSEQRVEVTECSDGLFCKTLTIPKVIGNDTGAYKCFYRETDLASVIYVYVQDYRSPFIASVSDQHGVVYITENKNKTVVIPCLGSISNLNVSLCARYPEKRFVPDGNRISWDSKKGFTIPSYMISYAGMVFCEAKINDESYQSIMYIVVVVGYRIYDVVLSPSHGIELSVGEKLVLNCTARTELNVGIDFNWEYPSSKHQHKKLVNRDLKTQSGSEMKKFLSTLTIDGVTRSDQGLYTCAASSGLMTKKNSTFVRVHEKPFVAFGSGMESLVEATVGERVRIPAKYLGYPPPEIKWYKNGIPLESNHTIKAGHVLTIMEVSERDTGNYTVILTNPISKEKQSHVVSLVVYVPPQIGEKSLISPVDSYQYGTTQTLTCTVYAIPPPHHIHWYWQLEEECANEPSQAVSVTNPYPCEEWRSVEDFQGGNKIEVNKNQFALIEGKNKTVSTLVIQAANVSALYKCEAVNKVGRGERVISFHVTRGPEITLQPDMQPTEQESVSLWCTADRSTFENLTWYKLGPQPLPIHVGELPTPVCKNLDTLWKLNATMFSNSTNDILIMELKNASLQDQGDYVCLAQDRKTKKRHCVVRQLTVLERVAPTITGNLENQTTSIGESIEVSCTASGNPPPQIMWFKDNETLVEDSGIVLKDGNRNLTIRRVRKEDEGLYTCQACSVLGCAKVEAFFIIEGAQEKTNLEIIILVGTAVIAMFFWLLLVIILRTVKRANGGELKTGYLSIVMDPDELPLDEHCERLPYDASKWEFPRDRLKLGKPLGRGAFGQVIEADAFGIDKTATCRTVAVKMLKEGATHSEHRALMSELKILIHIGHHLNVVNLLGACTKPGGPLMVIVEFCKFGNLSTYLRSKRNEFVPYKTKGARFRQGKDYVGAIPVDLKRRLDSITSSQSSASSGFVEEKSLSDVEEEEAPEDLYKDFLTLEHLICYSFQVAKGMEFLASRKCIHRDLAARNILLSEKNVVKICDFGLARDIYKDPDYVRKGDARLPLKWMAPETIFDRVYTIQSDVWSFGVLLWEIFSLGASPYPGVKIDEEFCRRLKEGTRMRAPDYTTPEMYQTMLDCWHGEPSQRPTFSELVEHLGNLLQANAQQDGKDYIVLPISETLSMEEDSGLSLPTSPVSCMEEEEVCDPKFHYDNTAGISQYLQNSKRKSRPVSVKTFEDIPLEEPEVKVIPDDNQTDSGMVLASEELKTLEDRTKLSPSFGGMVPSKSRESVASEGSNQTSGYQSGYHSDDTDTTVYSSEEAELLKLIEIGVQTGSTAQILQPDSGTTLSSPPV

[2] = biological target: Vascular endothelial growth factor receptor 2 (Homo sapiens) (UniProt P35968); assay: Inhibition of VEGFR2 in human BT474 cells assessed as downregulation of phosphorylated FAK levels at 20 uM by Western blot analysis; format: cell-based
[3] = biological target: Vascular endothelial growth factor receptor 2 (Homo sapiens) (UniProt P35968); assay: Inhibition of VEGFR2 in human MDA-MB-231 cells assessed as downregulation of phosphorylated FAK levels at 20 uM by Western blot analysis; format: cell-based
[4] = biological target: Vascular endothelial growth factor receptor 2 (Homo sapiens) (UniProt P35968); assay: Inhibition of VEGFR2 in human BT474 cells assessed as downregulation of phosphorylated paxillin levels at 50 uM by Western blot analysis; format: cell-based
Serum [5] = assay: Drug metabolism in athymic nude mouse serum assessed as dihydroxylated metabolite formation at 40 mg/kg, ip after 2 hrs by ES-MS analysis; format: ADME, organism-based; settings: in vivo
[6] = biological target: Vascular endothelial growth factor receptor 2 (Homo sapiens) (UniProt P35968); assay: Inhibition of VEGFR2 phosphorylation in human MDA-MB-231 cells at 50 uM by Western blot analysis; format: cell-based
[7] = biological target: Vascular endothelial growth factor receptor 2 (Homo sapiens) (UniProt P35968); assay: Inhibition of VEGFR2 in human MDA-MB-231 cells assessed as downregulation of phosphorylated paxillin levels at 50 uM by Western blot analysis; format: cell-based
[8] = biological target: Vascular endothelial growth factor receptor 2 (Homo sapiens) (UniProt P35968); assay: Inhibition of VEGFR2 in human MDA-MB-231 cells assessed as reduction in Akt phosphorylation at 20 to 50 uM by Western blot analysis; format: cell-based
Serum [9] = assay: Drug metabolism in athymic nude mouse serum assessed as monohydroxylated metabolite formation at 40 mg/kg, ip after 2 hrs by ES-MS analysis; format: ADME, organism-based; settings: in vivo
[10] = biological target: Vascular endothelial growth factor receptor 2 (Homo sapiens) (UniProt P35968); assay: Inhibition of VEGFR2 phosphorylation in human BT474 cells at 20 uM by Western blot analysis; format: cell-based
[11] = biological target: Vascular endothelial growth factor receptor 2 (Homo sapiens) (UniProt P35968); assay: Inhibition of VEGFR2 in human MDA-MB-231 cells assessed as downregulation of phosphorylated FAK levels at 50 uM by Western blot analysis; format: cell-based
[12] = biological target: Vascular endothelial growth factor receptor 2 (Homo sapiens) (UniProt P35968); assay: Inhibition of VEGFR2 in human BT474 cells assessed as reduction in PI3K phosphorylation at 20 to 50 uM by Western blot analysis; format: cell-based
[13] = biological target: Vascular endothelial growth factor receptor 2 (Homo sapiens) (UniProt P35968); assay: Inhibition of VEGFR2 in human BT474 cells assessed as downregulation of phosphorylated paxillin levels at 20 uM by Western blot analysis; format: cell-based
[14] = biological target: Vascular endothelial growth factor receptor 2 (Homo sapiens) (UniProt P35968); assay: Inhibition of VEGFR2 in human MDA-MB-231 cells assessed as downregulation of phosphorylated paxillin levels at 20 uM by Western blot analysis; format: cell-based
[15] = biological target: Vascular endothelial growth factor receptor 2 (Homo sapiens) (UniProt P35968); assay: Inhibition of VEGFR2 in human MDA-MB-231 cells assessed as reduction in PI3K phosphorylation at 20 to 50 uM by Western blot analysis; format: cell-based
[16] = biological target: Vascular endothelial growth factor receptor 2 (Homo sapiens) (UniProt P35968); assay: Inhibition of VEGFR2 phosphorylation in human BT474 cells at 50 uM by Western blot analysis; format: cell-based
Serum [17] = assay: Drug uptake in athymic nude mouse serum at 40 mg/kg, ip after 2 hrs by ES-MS analysis; format: ADME, organism-based; settings: in vivo
[18] = biological target: Vascular endothelial growth factor receptor 2 (Homo sapiens) (UniProt P35968); assay: Inhibition of VEGFR2 in human BT474 cells assessed as downregulation of phosphorylated FAK levels at 50 uM by Western blot analysis; format: cell-based
[19] = biological target: Vascular endothelial growth factor receptor 2 (Homo sapiens) (UniProt P35968); assay: Inhibition of VEGFR2 in human BT474 cells assessed as reduction in Akt phosphorylation at 20 to 50 uM by Western blot analysis; format: cell-based
Mus musculus = assay: Antiangiogenic activity in matrigel injected Swiss albino mouse assessed as reduction in hemoglobin content in matrigel plug at 2.5 mg/kg, ip every other day for 20 days by matrigel assay; format: functional; design: scale not given: the % may be the effect or the level left

Structure (SMILES)	inhibition [1] [%]	inhibition [2] [%]	inhibition [3] [%]	inhibition [4] [%]	Drug metabolism (Serum [5])	inhibition [6] [%]	inhibition [7] [%]	inhibition [8]	Drug metabolism (Serum [9])	inhibition [10] [%]	inhibition [11] [%]	inhibition [12]	inhibition [13] [%]	inhibition [14] [%]	inhibition [15]	inhibition [16] [%]	Drug uptake (Serum [17])	inhibition [18] [%]	inhibition [19]	Activity (Mus musculus) [%]
C/C1=C\[C@H](O)C[C@](C)(O)/C=C/[C@H](C(C)C)CC/C(C)=C/CC1	60.6	48.9	26	82.1	Metabolite_Detected	65.3	96.1	inactive	Metabolite_Detected	43.1	41.3	inactive	70.9	58.7	inactive	58.6	Active	74.8	inactive	–
CCN(CC)CCNC(=O)c1c(C)[nH]c(/C=C2\C(=O)Nc3ccc(F)cc32)c1C [SUNITINIB]	–	–	–	–	–	–	–	–	–	–	–	–	–	–	–	–	–	–	–	80
